# BindingDB's records for doi:10.1002/cbic.200900108 (University of British Columbia, 2009)
# Biological target: T1, Trans-sialidase (Trypanosoma cruzi, UniProt Q26966)
# T1 sequence (Q26966 whole entry): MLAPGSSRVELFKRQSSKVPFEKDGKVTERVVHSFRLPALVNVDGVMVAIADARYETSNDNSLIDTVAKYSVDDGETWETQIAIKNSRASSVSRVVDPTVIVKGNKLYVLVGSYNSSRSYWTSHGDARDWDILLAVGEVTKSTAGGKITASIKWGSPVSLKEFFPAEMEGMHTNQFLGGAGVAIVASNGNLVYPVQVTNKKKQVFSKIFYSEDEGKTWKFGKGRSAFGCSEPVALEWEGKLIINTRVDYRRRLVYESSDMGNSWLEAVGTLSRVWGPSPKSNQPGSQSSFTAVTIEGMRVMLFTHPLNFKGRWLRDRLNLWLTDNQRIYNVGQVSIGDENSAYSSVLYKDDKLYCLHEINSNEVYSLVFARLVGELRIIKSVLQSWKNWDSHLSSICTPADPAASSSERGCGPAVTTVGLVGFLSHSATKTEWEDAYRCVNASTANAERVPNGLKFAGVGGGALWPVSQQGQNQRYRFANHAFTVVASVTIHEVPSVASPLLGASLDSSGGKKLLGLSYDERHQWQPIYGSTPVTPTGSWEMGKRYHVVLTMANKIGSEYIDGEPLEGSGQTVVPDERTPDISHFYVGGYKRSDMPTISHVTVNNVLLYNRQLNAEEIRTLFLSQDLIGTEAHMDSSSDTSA
# Assay: Inhibition Assay
# Conditions: pH 7.6; 35 °C
# From the text: Inhibition assay using trans-sialidase, a membrane-associated protein.
SMILES,IC50 [µM],Ki [µM]
"Cc1ccc(S(=O)(=O)Nc2cccc(C(=O)/C=C/c3ccc(O)cc3)c2)cc1 [Sulfonamide chalcone, 6]",37,
"Cc1ccc(S(=O)(=O)N2c3ccccc3C(=O)/C(=C/c3ccc(O)c(O)c3)C2c2ccc(O)c(O)c2)cc1 (centres undefined) [Quinolinone derivative, 9]",0.6,0.4
"Cc1ccc(S(=O)(=O)N2c3ccccc3C(=O)/C(=C/c3ccc(O)cc3)C2c2ccc(O)cc2)cc1 (centres undefined) [Quinolinone derivative, 8]",30,
Cc1ccc(S(=O)(=O)Nc2ccc(C(=O)/C=C/c3ccc(O)cc3)cc2)cc1,73,

# Continued, values first:
IC50 [µM],Ki [µM],SMILES
2.5,3.7,Cc1ccc(S(=O)(=O)Nc2cccc(C(=O)/C=C/c3ccc(O)c(O)c3)c2)cc1
0.9,4.6,Cc1ccc(S(=O)(=O)Nc2ccc(C(=O)/C=C/c3ccc(O)c(O)c3)cc2)cc1
